LogP and Eff. % data for 67 compounds are collected here from patent US9326515B2, “Fungicidal 3-[(1,3-thiazol-4-ylmethoxyimino)(phenyl)methyl]-2-substituted-1,2,4-oxadiazol-5(2H)-one derivatives” (BAYER INTELLECTUAL PROPERTY GMBH, priority 2011, dated 2016).

System in one data set: not given
The note with it: pH 2.7.
With `CCCCC(C)C(=O)Nc1nc(CO/N=C(/c2ccccc2)c2nc(=O)on2C)cs1` (racemic) [Example 42], the lipophilicity (LogP) (usually the decadic logarithm of the partition coefficient of the neutral form, usually between octanol and water) is given as 3.42. Compound `CC(C)C(C)OC(=O)Nc1nc(CO/N=C(/c2ccccc2)c2nc(=O)on2C)cs1` (racemic) [Example 46] yielded a LogP of 3.35. This LogP and that of the compound before are within 0.2 log units of each other. `CC(C(=O)Nc1nc(CO/N=C(/c2ccccc2)c2nc(=O)on2C)cs1)c1ccccc1` (racemic) [Example 49] came in with a log partition coefficient (LogP) of 3.15. Same read-out and setting: to `CC(OC(=O)Nc1nc(CO/N=C(/c2ccccc2)c2nc(=O)on2C)cs1)C1CCCCC1` (racemic) [Example 56] belongs 4.31; to `Cn1oc(=O)nc1C(=NOCc1csc(NC(=O)C(C)(C)C)n1)c1ccccc1` [Example 3], 2.84. `Cn1oc(=O)nc1C(=NOCc1csc(NC(=O)Oc2ccc(F)cc2)n1)c1ccccc1` [Example 5] returned a LogP of 3.02. Still for that read-out and setting: as for `Cn1oc(=O)nc1C(=NOCc1csc(NC(=O)OC2CC3CCC2C3)n1)c1ccccc1` (centres unmarked) [Example 6], the figure is 3.60. As for `CCCCC(CC)COC(=O)Nc1nc(CON=C(c2ccccc2)c2nc(=O)on2C)cs1` (centres unmarked) [Example 7], the log partition coefficient (LogP) is 4.56. In turn, `Cn1oc(=O)nc1C(=NOCc1csc(NC(=O)c2ccccc2)n1)c1ccccc1` [Example 15] yielded a LogP of 2.88. The same measure, in the same setting: to `COc1cccc(/C(=N/OCc2csc(NC(=O)C(C)(C)Oc3ccccc3)n2)c2nc(=O)on2C)c1` [Example 36] belongs 3.63. `CCn1oc(=O)nc1/C(=N\OCc1csc(NC(=O)OCCc2ccccc2)n1)c1ccccc1` [Example 37]: the lipophilicity (LogP) was 3.55.

Compound `CCn1oc(=O)nc1/C(=N\OCc1csc(NC(=O)COc2ccccc2)n1)c1ccccc1` [Example 38] displayed a log partition coefficient (LogP) of 3.17. Consider `COCCn1oc(=O)nc1/C(=N\OCc1csc(NC(=O)OCCc2ccccc2)n1)c1ccccc1` [Example 39], for which the LogP was determined as 3.55. Still for that read-out and setting: as for `C#CCCCC(=O)Nc1nc(CO/N=C(/c2ccccc2)c2nc(=O)on2C)cs1` [Example 40], the figure is 2.54; as for `Cn1oc(=O)nc1/C(=N\OCc1csc(NC(=O)CCC2CCCCC2)n1)c1ccccc1` [Example 41], 3.92. `Cn1oc(=O)nc1/C(=N\OCc1csc(NC(=O)CCC2CCCC2)n1)c1ccccc1` [Example 43] displayed a log partition coefficient (LogP) of 3.58. Compound `Cn1oc(=O)nc1/C(=N\OCc1csc(NC(=O)OCCC2CCCCC2)n1)c1ccccc1` [Example 45] registered a LogP of 4.21. Still for that read-out and setting: to `CC#CCOC(=O)Nc1nc(CO/N=C(/c2ccccc2)c2nc(=O)on2C)cs1` [Example 47] belongs 2.66; to `Cc1ccc(C(=O)Nc2nc(CO/N=C(/c3ccccc3)c3nc(=O)on3C)cs2)cc1` [Example 48], 3.17; to `CC(C)[C@@H]1CC[C@@H](C)C[C@H]1OC(=O)Nc1nc(CO/N=C(/c2ccccc2)c2nc(=O)on2C)cs1` [Example 50], 4.91. Turning to `Cn1oc(=O)nc1/C(=N\OCc1csc(NC(=O)OC(C)(C)C(Cl)(Cl)Cl)n1)c1ccccc1` [Example 51], the log partition coefficient (LogP) is recorded as 3.96. In the case of `Cn1oc(=O)nc1/C(=N\OCc1csc(NC(=O)OCCC2CCCC2)n1)c1ccccc1` [Example 52], the LogP is recorded as 3.96.

Consider `Cn1oc(=O)nc1/C(=N\OCc1csc(NC(=O)CC2CCCC2)n1)c1ccccc1` [Example 53], for which the LogP is on record as 3.19. On the same count and under the same terms, as for `CC#CCCOC(=O)Nc1nc(CO/N=C(/c2ccccc2)c2nc(=O)on2C)cs1` [Example 54], the figure is 2.80; as for `CC(C)CCOC(=O)Nc1nc(CO/N=C(/c2ccccc2)c2nc(=O)on2C)cs1` [Example 55], 3.44. `Cn1oc(=O)nc1/C(=N\OCc1csc(NC(=O)CCc2ccccc2)n1)c1ccccc1` [Example 57] came in with a lipophilicity (LogP) of 3.09. The compound `Cn1oc(=O)nc1/C(=N\OCc1csc(NC(=O)C2CCCC2)n1)c1ccccc1` [Example 58] displayed a LogP of 2.88. Compound `CCCCOC(=O)Nc1nc(CO/N=C(/c2ccccc2)c2nc(=O)on2C)cs1` [Example 59] registered a LogP of 3.13. The same measure, in the same setting: to `CCCCC(=O)Nc1nc(CO/N=C(/c2ccccc2)c2nc(=O)on2C)cs1` [Example 60] belongs 2.80; to `Cn1oc(=O)nc1/C(=N\OCc1csc(NC(=O)OCC(C)(C)C)n1)c1ccccc1` [Example 61], 3.39. Consider `CC(C)CC(=O)Nc1nc(CO/N=C(/c2ccccc2)c2nc(=O)on2C)cs1` [Example 62], for which the log partition coefficient (LogP) stood at 2.75. The same measure, in the same setting: to `Cn1oc(=O)nc1C(=NOCc1csc(NC(=O)OCC2CCCCC2)n1)c1ccccc1` [Example 63] belongs 3.92.

As to `C=CCCCCOC(=O)Nc1nc(CON=C(c2ccccc2)c2nc(=O)on2C)cs1` [Example 64], the LogP worked out at 3.51. Take `Cn1oc(=O)nc1C(=NOCc1csc(NC(=O)Cc2ccccc2)n1)c1ccccc1` [Example 65]: the log partition coefficient (LogP) stood at 2.82. Same read-out and setting: as for `Cn1oc(=O)nc1C(=NOCc1csc(NC(=O)OCCCC2CCCC2)n1)c1ccccc1` [Example 66], the figure is 4.36; as for `C#CCOC(=O)Nc1nc(CON=C(c2ccccc2)c2nc(=O)on2C)cs1` [Example 67], 2.49. Same read-out and setting: to `Cc1cccc(C(=O)Nc2nc(CON=C(c3ccccc3)c3nc(=O)on3C)cs2)c1` [Example 68] belongs 3.19. For `CCCCCOC(=O)Nc1nc(CON=C(c2ccccc2)c2nc(=O)on2C)cs1` [Example 69], the LogP is 3.51. As to `COc1ccc(CC(=O)Nc2nc(CON=C(c3ccccc3)c3nc(=O)on3C)cs2)cc1` [Example 70], the LogP is listed as 2.80. `COc1cccc(C(=O)Nc2nc(CON=C(c3ccccc3)c3nc(=O)on3C)cs2)c1` [Example 71]: the LogP came out at 2.98. `CCC#CCOC(=O)Nc1nc(CON=C(c2ccccc2)c2nc(=O)on2C)cs1` [Example 72] came in with a LogP of 2.98. As to `Cn1oc(=O)nc1C(=NOCc1csc(NC(=O)OCC#Cc2ccccc2)n1)c1ccccc1` [Example 73], the lipophilicity (LogP) stood at 3.44. Same read-out and setting: to `Cn1oc(=O)nc1C(=NOCc1csc(NC(=O)C2(C)CCCCC2)n1)c1ccccc1` [Example 74] belongs 3.58. Compound `Cn1oc(=O)nc1C(=NOCc1csc(NC(=O)Cc2cccs2)n1)c1ccccc1` [Example 75] had a LogP of 2.71. The compound `C=CCC(C)OC(=O)Nc1nc(CON=C(c2ccccc2)c2nc(=O)on2C)cs1` (centres unmarked) [Example 76] gave a lipophilicity (LogP) of 3.15.

With `CC=CCCCOC(=O)Nc1nc(CON=C(c2ccccc2)c2nc(=O)on2C)cs1` [Example 77], the lipophilicity (LogP) is 3.55.

Compound `Cn1oc(=O)nc1C(=NOCc1csc(NC(=O)OCCC2CC2)n1)c1ccccc1` [Example 78] showed a LogP of 3.15. On to `Cn1oc(=O)nc1C(=NOCc1csc(NC(=O)OCCCC2CC2)n1)c1ccccc1` [Example 79], for which the LogP came to 3.51. For `CC(CC1CC1)OC(=O)Nc1nc(CON=C(c2ccccc2)c2nc(=O)on2C)cs1` (centres unmarked) [Example 80], the LogP stood at 3.42.

Regarding `CC#CCC(C)OC(=O)Nc1nc(CON=C(c2ccccc2)c2nc(=O)on2C)cs1` (centres unmarked) [Example 81], the LogP was found to be 3.06. Take `Cn1oc(=O)nc1C(=NOCc1csc(NC(=O)OCCCCC(F)(F)F)n1)c1ccccc1` [Example 82]: the lipophilicity (LogP) stood at 3.27. Same read-out and setting: to `Cn1oc(=O)nc1C(=NOCc1csc(NC(=O)OCCCC2CCCCC2)n1)c1ccccc1` [Example 83] belongs 4.71; to `COc1cccc(C(=NOCc2csc(NC(=O)COc3ccccc3)n2)c2nc(=O)on2C)c1` [Example 84], 3.02; to `COc1cccc(C(=NOCc2csc(NC(=O)OCCc3ccccc3)n2)c2nc(=O)on2C)c1` [Example 85], 3.39. Regarding `COc1cccc(C(=NOCc2csc(NC(=O)CC3CCCC3)n2)c2nc(=O)on2C)c1` [Example 86], the LogP is 3.25. Turning to `CCC(C)(C)C(=O)Nc1nc(CON=C(c2ccccc2)c2nc(=O)on2C)cs1` [Example 87], the LogP came to 3.13. The LogP values of the last two compounds are within 0.2 log units of each other. Same read-out and setting: to `Cn1oc(=O)nc1C(=NOCc1csc(NC(=O)OCC2CC2)n1)c1ccccc1` [Example 88] belongs 2.84. For `Cn1oc(=O)nc1C(=NOCc1csc(NC(=O)c2csc3ccccc23)n1)c1ccccc1` [Example 89], the LogP is on record as 3.57. For `Cn1oc(=O)nc1C(=NOCc1csc(NC(=O)C2CCCCC2)n1)c1ccccc1` [Example 90], the LogP came to 3.19. For `Cn1oc(=O)nc1C(=NOCc1csc(NC(=O)c2ccc(F)cc2)n1)c1ccccc1` [Example 91], the LogP is listed as 3.00. For the compound `CC(OC(=O)Nc1nc(CON=C(c2ccccc2)c2nc(=O)on2C)cs1)C(C)(C)C` (centres unmarked) [Example 92], the LogP was 3.65. The compound `Cn1oc(=O)nc1/C(=N\OCc1csc(NC(=O)OCCCCl)n1)c1ccccc1` [Example 93] registered a LogP of 2.80. For `C=C(C)COC(=O)Nc1nc(CO/N=C(/c2ccccc2)c2nc(=O)on2C)cs1` [Example 94], the LogP is 2.92.

`CC(OC(=O)Nc1nc(CO/N=C(/c2ccccc2)c2nc(=O)on2C)cs1)C1CCCC1` (centres unmarked) [Example 95]: the LogP is reported as 3.85. `Cn1oc(=O)nc1/C(=N\OCc1csc(NC(=O)OCc2ccccc2)n1)c1ccccc1` [Example 96] yielded a LogP of 3.17. Same read-out and setting: to `COc1ccc(OC(=O)Nc2nc(CO/N=C(/c3ccccc3)c3nc(=O)on3C)cs2)cc1` [Example 97] belongs 2.94; to `CCN(O)C(=N)/C(=N\OCc1csc(NC(=O)COc2ccccc2)n1)c1ccccc1` [Example V-1], 2.42.

A further data set has as its system Phytophthora infestans. The class given is in vivo. As to conditions: 100 ppm of active ingredient, spray on young tomato plants, inoculated one day after treatment, evaluated 7 days after inoculation.
Consider `Cn1oc(=O)nc1C(=NOCc1csc(NC(=O)C(C)(C)C)n1)c1ccccc1` [Example 3], for which the Eff. % was found to be 84%.

`Cn1oc(=O)nc1C(=NOCc1csc(NC(=O)OC2CC3CCC2C3)n1)c1ccccc1` (centres unmarked) [Example 6] yielded an Eff. % of 90%. Still for that read-out and setting: to `CCCCC(CC)COC(=O)Nc1nc(CON=C(c2ccccc2)c2nc(=O)on2C)cs1` (centres unmarked) [Example 7] belongs 85%. `Cn1oc(=O)nc1C(=NOCc1csc(NC(=O)c2ccccc2)n1)c1ccccc1` [Example 15]: the Eff. % stood at 92%.
